Assay [1] concerns the target T1, Recombinant STAT6 protein (STAT6(W123-T658)) (Homo sapiens, UniProt P42226).
T1 construct: STAT6(W123-T658)
T1 sequence (P42226 123-658): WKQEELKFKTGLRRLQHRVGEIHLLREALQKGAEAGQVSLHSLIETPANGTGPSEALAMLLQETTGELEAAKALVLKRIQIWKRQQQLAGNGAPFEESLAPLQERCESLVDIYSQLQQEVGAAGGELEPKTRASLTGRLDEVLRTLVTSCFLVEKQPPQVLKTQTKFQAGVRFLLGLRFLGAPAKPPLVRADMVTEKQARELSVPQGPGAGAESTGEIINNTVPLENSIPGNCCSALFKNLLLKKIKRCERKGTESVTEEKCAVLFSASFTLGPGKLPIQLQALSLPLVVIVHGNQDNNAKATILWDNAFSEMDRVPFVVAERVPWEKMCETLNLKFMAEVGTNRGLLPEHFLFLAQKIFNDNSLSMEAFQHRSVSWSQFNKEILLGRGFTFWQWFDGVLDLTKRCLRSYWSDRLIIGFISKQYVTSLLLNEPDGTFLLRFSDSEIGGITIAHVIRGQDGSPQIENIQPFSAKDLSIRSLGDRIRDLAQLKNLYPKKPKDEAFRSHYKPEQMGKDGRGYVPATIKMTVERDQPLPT
As to the kind of experiment: STAT6 Fluorescence Polarization (FP) Assay. The class given is binding. To be noted: STAT6(W123-T658) 250 nM, probe 5-FAM-ApYKPFQDLI-NH2 2 nM, 45-minute incubation. The gist of the method: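 Competitive displacement of a fluorescent phosphotyrosine peptide (2 nM) from recombinant STAT6 W123-T658 (250 nM), 45 min at room temperature in 10 mM HEPES pH 7.4, 50 mM NaCl, 2 mM DTT. mP fitted against log compound for IC50, grouped A (≤300 nM) to D (>30 μM).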
(In general: In fluorescence polarisation assays a small probe gives low polarisation when free and higher when bound to something large.)

Assay [2] addresses T2, Recombinant STAT3 protein (STAT3(G127-I722)) (Homo sapiens, UniProt P40763).
T2 construct: STAT3(G127-I722)
Description: STAT3 Fluorescence Polarization (FP) Assay. The class given is binding. Particulars: STAT3(G127-I722) 25 nM, probe 5-FAM-GpYLPQTV-NH2 2 nM, 45-minute incubation. The method, boiled down: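 Serially diluted compounds (1% DMSO) were mixed with 2 nM fluorescent phosphotyrosine peptide and 25 nM STAT3 construct G127-I722, pH 7.4, incubated 45 min at room temperature. IC50 values from fitted polarization curves are reported as categories A (≤100 nM), B, C, D (>10 μM).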

Bounds are passed on as bounds.

A word on the IC50: it is the concentration needed to halve the response being measured.

T2 sequence (P40763 127-722, species assumed): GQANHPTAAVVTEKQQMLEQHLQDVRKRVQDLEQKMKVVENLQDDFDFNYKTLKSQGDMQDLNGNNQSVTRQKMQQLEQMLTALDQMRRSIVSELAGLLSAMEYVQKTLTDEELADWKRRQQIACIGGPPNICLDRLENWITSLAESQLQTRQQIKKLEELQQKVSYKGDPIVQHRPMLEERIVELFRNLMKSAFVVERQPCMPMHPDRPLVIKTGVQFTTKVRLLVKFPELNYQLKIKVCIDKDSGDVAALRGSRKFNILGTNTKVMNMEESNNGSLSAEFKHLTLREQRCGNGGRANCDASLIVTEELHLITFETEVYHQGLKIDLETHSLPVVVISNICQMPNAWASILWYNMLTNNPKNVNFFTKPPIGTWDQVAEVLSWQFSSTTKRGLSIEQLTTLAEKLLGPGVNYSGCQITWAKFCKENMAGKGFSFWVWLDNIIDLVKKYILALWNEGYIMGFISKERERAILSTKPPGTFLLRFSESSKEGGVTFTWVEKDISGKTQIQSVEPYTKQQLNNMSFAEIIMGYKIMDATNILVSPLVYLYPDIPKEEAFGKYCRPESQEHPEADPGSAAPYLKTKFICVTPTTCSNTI

For the compound `O=C(N[C@H]1C[C@@H]2C[C@@H]2C[C@H]2CC[C@@H](C(=O)N3CCC4C3CN4c3cccnc3)N2C1=O)c1cc2cc(CP(=O)(O)O)ccc2s1` (stereo partly drawn) [Example 261, ((2-(((3S,6S,7aS,8aR,9aR)-5-oxo-3-(6-(pyridin-3-yl)-2,6-diazabicyclo[3.2.0]heptane-2-carbonyl)decahydro-1H-cyclopropa[d]pyrrolo[1,2-a]azocin-6-yl)carbamoyl)benzo[b]thiophen-5-yl)methyl)phosphonic acid], the IC50 in assay [1] fell in the range of 3000 to 30000 nM; in assay [2] it was 100 to 1000 nM.

In the case of `CS(=O)(=O)CC1CN(C(=O)[C@@H]2CC[C@@H]3C[C@H]4C[C@H]4C[C@H](NC(=O)c4cc5cc(C(F)P(=O)(O)O)ccc5s4)C(=O)N32)C1` (stereo partly drawn) [Example 333, (fluoro(2-(((3S,6S,7aS,8aR,9aR)-3-(3-((methylsulfonyl)methyl)azetidine-1-carbonyl)-5-oxodecahydro-1H-cyclopropa[d]pyrrolo[1,2-a]azocin-6-yl)carbamoyl)benzo[b]thiophen-5-yl)methyl)phosphonic acid], the IC50 in assay [1] is 3000 to 30000 nM; in assay [2] it was < 100 nM.

Consider `O=C(N[C@H]1C[C@@H]2C[C@@H]2C[C@H]2CC[C@@H](C(=O)N3CCC4C3CN4c3cccnc3)N2C1=O)c1cc2cc(C(F)(F)P(=O)(O)O)ccc2s1` (stereo partly drawn) [Example 259, (difluoro(2-(((3S,6S,7aS,8aR,9aR)-5-oxo-3-(6-(pyridin-3-yl)-2,6-diazabicyclo[3.2.0]heptane-2-carbonyl)decahydro-1H-cyclopropa[d]pyrrolo[1,2-a]azocin-6-yl)carbamoyl)benzo[b]thiophen-5-yl)methyl)phosphonic acid], for which the IC50 was 300 to 3000 nM in assay [1] and < 100 nM in assay [2].

Consider `O=C(N[C@H]1C[C@H]2C[C@H]2C[C@H]2CC[C@@H](C(=O)N3CCN(C4CCOCC4)CC3)N2C1=O)c1cc2cc(C(F)(F)P(=O)(O)O)ccc2s1` [Compound 125, (difluoro(2-(((3S,6S,7aR,8aS,9aR)-5-ox0-3-(4-(tetrahydro-2H-pyran-4-yl)piperazine-1-carbonyl)decahydro-1H-cyclopropa[d]pyrrolo[1,2-a]azocin-6-yl)carbamoyl)benzo[b]thiophen-5-yl)methyl)phosphonic acid], for which the IC50 in assay [1] is 3000 to 30000 nM; in assay [2], 100 to 1000 nM.

Regarding `CC(=O)N1C[C@H](NC(=O)[C@@H]2CC[C@@H]3C[C@@H]4C[C@@H]4C[C@H](NC(=O)c4cc5cc(C(F)(F)P(=O)(O)O)ccc5s4)C(=O)N32)[C@@H](F)C1` [Compound 126, ((2-(((3S,6S,7aR,8aS,9aR)-3-(((3S,4S)-1-acetyl-4-fluoropyrrolidin-3-yl)carbamoyl)-5-oxodecahydro-1H-cyclopropa[d]pyrrolo[1,2-a]azocin-6-yl)carbamoyl)benzo[b]thiophen-5-yl)difluoromethyl)phosphonic acid], the IC50 in assay [1] is 300 to 3000 nM; in assay [2] it was < 100 nM.

For the compound `O=C(N[C@H]1C[C@@H]2C[C@@H]2C[C@H]2CC[C@@H](C(=O)N3CC[C@@H](C(=O)N4CCOCC4)C3)N2C1=O)c1cc2cc(C(F)(F)P(=O)(O)O)ccc2s1` (single isomer, unassigned) [Compound 98], the values for the IC50 in assay [1] and in assay [2] were 3000 to 30000 nM and 100 to 1000 nM, respectively.

Consider `O=C(N[C@H]1C[C@@H]2C[C@@H]2C[C@H]2CC[C@@H](C(=O)N3CC(c4cnccc4N4CCC4)C3)N2C1=O)c1cc2cc([C@@H](F)P(=O)(O)O)ccc2s1` [Example 421, ((S)-(2-(((3S,6S,7aS,8aR,9aR)-3-(3-(4-(azetidin-1-yl)pyridin-3-yl)azetidine-1-carbonyl)-5-oxodecahydro-1H-cyclopropa[d]pyrrolo[1,2-a]azocin-6-yl)carbamoyl)benzo[b]thiophen-5-yl)fluoromethyl)phosphonic acid], for which the concentration for half-maximal inhibition (IC50) is 3000 to 30000 nM in assay [1] and < 100 nM in assay [2].

On to `C[C@H]1CN(C(=O)C2CN(C(=O)[C@@H]3CC[C@@H]4C[C@H]5C[C@H]5C[C@H](NC(=O)c5cc6cc(C(F)(F)P(=O)(O)O)ccc6s5)C(=O)N43)C2)CCO1` [Compound 12, (difluoro(2-(((3S,6S,7aS,8aR,9aR)-3-(3-((S)-2-methylmorpholine-4-carbonyl)azetidine-1-carbonyl)-5-oxodecahydro-1H-cyclopropa[d]pyrrolo[1,2-a]azocin-6-yl)carbamoyl)benzo[b]thiophen-5-yl)methyl)phosphonic acid], for which the IC50 was 3000 to 30000 nM in assay [1] and < 100 nM in assay [2].

For the compound `CCc1ccncc1C1CN(C(=O)[C@@H]2CC[C@@H]3C[C@H]4C[C@H]4C[C@H](NC(=O)c4cc5cc(CP(=O)(O)O)ccc5s4)C(=O)N32)C1` [Example 252, ((2-(((3S,6S,7aS,8aR,9aR)-3-(3-(4-ethylpyridin-3-yl)azetidine-1-carbonyl)-5-oxodecahydro-1H-cyclopropa[d]pyrrolo[1,2-a]azocin-6-yl)carbamoyl)benzo[b]thiophen-5-yl)methyl)phosphonic acid], the IC50 in assay [1] is > 30000 nM; in assay [2], < 100 nM.

In the case of `Cn1ccc2cncc(C3CN(C(=O)[C@@H]4CC[C@@H]5C[C@H]6C[C@H]6C[C@H](NC(=O)c6cc7cc([C@@H](F)P(=O)(O)O)ccc7s6)C(=O)N54)C3)c21` [Example 427, ((S)-fluoro(2-(((3S,6S,7aS,8aR,9aR)-3-(3-(1-methyl-1H-pyrrolo[3,2-c]pyridin-7-yl)azetidine-1-carbonyl)-5-oxodecahydro-1H-cyclopropa[d]pyrrolo[1,2-a]azocin-6-yl)carbamoyl)benzo[b]thiophen-5-yl)methyl)phosphonic acid], the results for the IC50 in assay [1] and in assay [2] were 300 to 3000 nM and 100 to 1000 nM, respectively.

Take `O=C(N[C@H]1C[C@@H]2C[C@@H]2C[C@H]2CC[C@@H](C(=O)N3CC(O)(c4ccccn4)C3)N2C1=O)c1cc2cc(C(F)(F)P(=O)(O)O)ccc2s1` [Compound 87, (difluoro(2-(((3S,6S,7aS,8aR,9aR)-3-(3-hydroxy-3-(pyridin-2-yl)azetidine-1-carbonyl)-5-oxodecahydro-1H-cyclopropa[d]pyrrolo[1,2-a]azocin-6-yl)carbamoyl)benzo[b]thiophen-5-yl)methyl)phosphonic acid]: the IC50 in assay [1] is 3000 to 30000 nM; in assay [2], < 100 nM.

As for `O=C(N[C@H]1C[C@@H]2C[C@@H]2C[C@H]2CC[C@@H](C(=O)N[C@H]3CN(c4ncc[nH]4)C[C@@H]3F)N2C1=O)c1cc2cc(C(F)P(=O)(O)O)ccc2s1` (stereo partly drawn) [Example 339, (fluoro(2-(((3S,6S,7aS,8aR,9aR)-3-(((3S,4S)-4-fluoro-1-(1H-imidazol-2-yl)pyrrolidin-3-yl)carbamoyl)-5-oxodecahydro-1H-cyclopropa[d]pyrrolo[1,2-a]azocin-6-yl)carbamoyl)benzo[b]thiophen-5-yl)methyl)phosphonic acid], the values for the IC50 in assay [1] and in assay [2] were 300 to 3000 nM and < 100 nM, respectively.

For `O=C(N[C@H]1C[C@@H]2C[C@@H]2C[C@H]2CC[C@@H](C(=O)N3CC(Cc4ccc(F)cc4)C3)N2C1=O)c1cc2cc(CP(=O)(O)O)ccc2s1` [Example 369, ((2-(((3S,6S,7aS,8aR,9aR)-3-(3-(4-fluorobenzyl)azetidine-1-carbonyl)-5-oxodecahydro-1H-cyclopropa[d]pyrrolo[1,2-a]azocin-6-yl)carbamoyl)benzo[b]thiophen-5-yl)methyl)phosphonic acid], the concentration for half-maximal inhibition (IC50) lay within 3000 to 30000 nM in assay [1] and 100 to 1000 nM in assay [2].

With “(difluoro(2-(((3S,6S,7aR,8aS,9aR)-5-ox0-3-(3-(pyridin-2-yl)azetidine-1-carbonyl)decahydro-1H-cyclopropa[d]pyrrolo[1,2-a]azocin-6-yl)carbamoyl)benzo[b]thiophen-5-yl)methyl)phosphonic acid [Compound 106]”, the IC50 in assay [1] was 300 to 3000 nM; in assay [2], < 100 nM.

In the case of `C[C@]12CC[C@H](NC(=O)c3cc4cc(CP(=O)(O)O)ccc4s3)C(=O)N3[C@H](CC[C@H]3C(=O)N3CC(c4cccnc4)C3)[C@H]1C2` [Example 235, ((2-(((3S,6S,8aR,9aS,9bR)-8a-methyl-5-oxo-3-(3-(pyridin-3-yl)azetidine-1-carbonyl)decahydro-1H-cyclopropa[c]pyrrolo[1,2-a]azocin-6-yl)carbamoyl)benzo[b]thiophen-5-yl)methyl)phosphonic acid], the IC50 was > 30000 nM in assay [1] and 100 to 1000 nM in assay [2].

Regarding `O=C(N[C@H]1C[C@@H]2C[C@@H]2C[C@H]2CC[C@@H](C(=O)N3CCN(C4COC4)CC3)N2C1=O)c1cc2cc(C(F)(F)P(=O)(O)O)ccc2s1` [Compound 43, (difluoro(2-(((3S,6S,7aS,8aR,9aR)-3-(4-(oxetan-3-yl)piperazine-1-carbonyl)-5-oxodecahydro-1H-cyclopropa[d]pyrrolo[1,2-a]azocin-6-yl)carbamoyl)benzo[b]thiophen-5-yl)methyl)phosphonic acid], the IC50 is 3000 to 30000 nM in assay [1] and 100 to 1000 nM in assay [2].

(Values after US20250215030A1, “STAT MODULATORS AND USES THEREOF” (Recludix Pharma, Inc., priority 2022, published 2025).)
